Experiments:
Type in all cases: functional
[1] = tested on: Medicago sativa; assay: Post-emergence herbicidal activity against Medicago sativa (alfalfa) assessed as growth inhibition at 1500 ai g/ha after 20 days by green house test
[2] = tested on: Brassica rapa subsp. oleifera; assay: Post-emergence herbicidal activity against Brassica rapa subsp. oleifera Si Yue Man assessed as growth inhibition at 1500 ai g/ha after 20 days by green house test
[3] = tested on: Amaranthus retroflexus; assay: Pre-emergence herbicidal activity against Amaranthus retroflexus assessed as growth inhibition at 1500 ai g/ha after 20 days by green house test
[4] = tested on: Digitaria sanguinalis; assay: Pre-emergence herbicidal activity against Digitaria sanguinalis (hairy crabgrass) assessed as growth inhibition at 1500 ai g/ha after 20 days by green house test
[5] = tested on: Echinochloa crus-galli; assay: Pre-emergence herbicidal activity against Echinochloa crus-galli (barnyard grass) assessed as growth inhibition at 1500 ai g/ha after 20 days by green house test
[6] = tested on: Echinochloa crus-galli; assay: Post-emergence herbicidal activity against Echinochloa crus-galli (barnyard grass) assessed as growth inhibition at 1500 ai g/ha after 20 days by green house test
[7] = tested on: Amaranthus retroflexus; assay: Post-emergence herbicidal activity against Amaranthus retroflexus assessed as growth inhibition at 1500 ai g/ha after 20 days by green house test
[8] = tested on: Brassica rapa subsp. oleifera; assay: Pre-emergence herbicidal activity against Brassica rapa subsp. oleifera Si Yue Man assessed as growth inhibition at 1500 ai g/ha after 20 days by green house test
[9] = tested on: Medicago sativa; assay: Pre-emergence herbicidal activity against Medicago sativa (alfalfa) assessed as growth inhibition at 1500 ai g/ha after 20 days by green house test
[10] = tested on: Digitaria sanguinalis; assay: Post-emergence herbicidal activity against Digitaria sanguinalis (hairy crabgrass) assessed as growth inhibition at 1500 ai g/ha after 20 days by green house test

In the case of COP(=O)(OC)C(OC(=O)COc1cccc(F)c1)c1cccc([N+](=O)[O-])c1 (stereo not given), the “growth inhibition (GI)” value [1] was “<=50%”, the “growth inhibition (GI)” value [2] was “<=50%” and the “growth inhibition (GI)” value [3] was “<=50%”. For the same compound, the “growth inhibition (GI)” value [4] was “<=50%”, the “growth inhibition (GI)” value [5] was “<=50%” and the “growth inhibition (GI)” value [6] was “<=50%”. For the same compound, the “growth inhibition (GI)” value [7] was “<=50%”, the “growth inhibition (GI)” value [8] was “<=50%” and the “growth inhibition (GI)” value [9] was “<=50%”. The “growth inhibition (GI)” value [10] was “<=50%”.
With COP(=O)(COC(=O)COc1ccc(C(F)(F)F)cc1)OC the “growth inhibition (GI)” value [1] was “<=50%”, the “growth inhibition (GI)” value [2] was “<=50%” and the “growth inhibition (GI)” value [3] was “<=50%”. For the same compound, the “growth inhibition (GI)” value [4] was “<=50%”, the “growth inhibition (GI)” value [5] was “<=50%” and the “growth inhibition (GI)” value [6] was “<=50%”. For the same compound, the “growth inhibition (GI)” value [7] was 75%, the “growth inhibition (GI)” value [8] was “<=50%” and the “growth inhibition (GI)” value [9] was “<=50%”. For the same compound, the “growth inhibition (GI)” value [10] was “<=50%”.
In the case of COP(=O)(OC)C(C)OC(=O)COc1cc(C)ccc1Cl (stereo not given), the “growth inhibition (GI)” value [1] was “<=50%”, the “growth inhibition (GI)” value [2] was “<=50%” and the “growth inhibition (GI)” value [3] was “<=50%”. For the same compound, the “growth inhibition (GI)” value [4] was “<=50%”, the “growth inhibition (GI)” value [5] was “<=50%” and the “growth inhibition (GI)” value [6] was “<=50%”. For the same compound, the “growth inhibition (GI)” value [7] was “<=50%”, the “growth inhibition (GI)” value [8] was “<=50%” and the “growth inhibition (GI)” value [9] was “<=50%”. For the same compound, the “growth inhibition (GI)” value [10] was 50%.
In the case of COP(=O)(OC)C(OC(=O)COc1ccc(Cl)cc1)c1ccccc1O (stereo not given), the “growth inhibition (GI)” value [1] was 75%, the “growth inhibition (GI)” value [2] was 75% and the “growth inhibition (GI)” value [3] was “<=50%”. For the same compound, the “growth inhibition (GI)” value [4] was 50%, the “growth inhibition (GI)” value [5] was “<=50%” and the “growth inhibition (GI)” value [6] was “<=50%”. The “growth inhibition (GI)” value [7] was 75%, the “growth inhibition (GI)” value [8] was “<=50%” and the “growth inhibition (GI)” value [9] was 90%. For the same compound, the “growth inhibition (GI)” value [10] was “<=50%”.
For COP(=O)(OC)C(OC(=O)COc1ccccc1[N+](=O)[O-])c1cccc([N+](=O)[O-])c1 (stereo not given), the “growth inhibition (GI)” value [1] was “<=50%”, the “growth inhibition (GI)” value [2] was “<=50%” and the “growth inhibition (GI)” value [3] was “<=50%”. The “growth inhibition (GI)” value [4] was “<=50%”, the “growth inhibition (GI)” value [5] was “<=50%” and the “growth inhibition (GI)” value [6] was “<=50%”. For the same compound, the “growth inhibition (GI)” value [7] was “<=50%”, the “growth inhibition (GI)” value [8] was “<=50%” and the “growth inhibition (GI)” value [9] was “<=50%”. For the same compound, the “growth inhibition (GI)” value [10] was “<=50%”.
For COP(=O)(OC)C(OC(=O)COc1cccc(Cl)c1Cl)c1cccc([N+](=O)[O-])c1 (stereo not given), the “growth inhibition (GI)” value [1] was “<=50%”, the “growth inhibition (GI)” value [2] was “<=50%” and the “growth inhibition (GI)” value [3] was “<=50%”. The “growth inhibition (GI)” value [4] was “<=50%”, the “growth inhibition (GI)” value [5] was “<=50%” and the “growth inhibition (GI)” value [6] was “<=50%”. For the same compound, the “growth inhibition (GI)” value [7] was “<=50%”, the “growth inhibition (GI)” value [8] was “<=50%” and the “growth inhibition (GI)” value [9] was “<=50%”. The “growth inhibition (GI)” value [10] was “<=50%”.
For COP(=O)(OC)C(C)OC(=O)COc1ccc(Br)cc1Br (stereo not given), the “growth inhibition (GI)” value [1] was 90%, the “growth inhibition (GI)” value [2] was 90% and the “growth inhibition (GI)” value [3] was “<=50%”. The “growth inhibition (GI)” value [4] was “<=50%”, the “growth inhibition (GI)” value [5] was “<=50%” and the “growth inhibition (GI)” value [6] was “<=50%”. For the same compound, the “growth inhibition (GI)” value [7] was 90%, the “growth inhibition (GI)” value [8] was “<=50%” and the “growth inhibition (GI)” value [9] was 75%. For the same compound, the “growth inhibition (GI)” value [10] was “<=50%”.
For COP(=O)(OC)C(OC(=O)COc1ccc(F)cc1Cl)c1ccccc1 (stereo not given), the “growth inhibition (GI)” value [1] was 75%, the “growth inhibition (GI)” value [2] was 75% and the “growth inhibition (GI)” value [3] was 90%. For the same compound, the “growth inhibition (GI)” value [4] was 90%, the “growth inhibition (GI)” value [5] was 90% and the “growth inhibition (GI)” value [6] was 75%. The “growth inhibition (GI)” value [7] was 90%, the “growth inhibition (GI)” value [8] was 90% and the “growth inhibition (GI)” value [9] was 90%. For the same compound, the “growth inhibition (GI)” value [10] was 50%.
With COP(=O)(OC)C(C)OC(=O)COc1ccc(C)cc1 (stereo not given) the “growth inhibition (GI)” value [1] was 50%, the “growth inhibition (GI)” value [2] was 50% and the “growth inhibition (GI)” value [3] was 75%. The “growth inhibition (GI)” value [4] was “<=50%”, the “growth inhibition (GI)” value [5] was 50% and the “growth inhibition (GI)” value [6] was 50%. For the same compound, the “growth inhibition (GI)” value [7] was 50%, the “growth inhibition (GI)” value [8] was 75% and the “growth inhibition (GI)” value [9] was 75%. The “growth inhibition (GI)” value [10] was “<=50%”.
For COP(=O)(OC)C(C)OC(=O)COc1ccc(F)cc1 (stereo not given), the “growth inhibition (GI)” value [1] was 50%, the “growth inhibition (GI)” value [2] was 50% and the “growth inhibition (GI)” value [3] was 50%. For the same compound, the “growth inhibition (GI)” value [4] was 90%, the “growth inhibition (GI)” value [5] was “<=50%” and the “growth inhibition (GI)” value [6] was “<=50%”. For the same compound, the “growth inhibition (GI)” value [7] was 75%, the “growth inhibition (GI)” value [8] was 75% and the “growth inhibition (GI)” value [9] was 75%. The “growth inhibition (GI)” value [10] was “<=50%”.
With COP(=O)(OC)C(OC(=O)COc1ccc([N+](=O)[O-])cc1)c1cccc([N+](=O)[O-])c1 (stereo not given) the “growth inhibition (GI)” value [1] was “<=50%”, the “growth inhibition (GI)” value [2] was “<=50%” and the “growth inhibition (GI)” value [3] was “<=50%”. The “growth inhibition (GI)” value [4] was “<=50%”, the “growth inhibition (GI)” value [5] was “<=50%” and the “growth inhibition (GI)” value [6] was “<=50%”. The “growth inhibition (GI)” value [7] was “<=50%”, the “growth inhibition (GI)” value [8] was “<=50%” and the “growth inhibition (GI)” value [9] was “<=50%”. For the same compound, the “growth inhibition (GI)” value [10] was “<=50%”.
COP(=O)(OC)C(OC(=O)COc1ccc(Cl)cc1Cl)c1cccc(Br)c1 (stereo not given) was tested, and the “growth inhibition (GI)” value [1] was 90%, the “growth inhibition (GI)” value [2] was 90% and the “growth inhibition (GI)” value [3] was 90%. The “growth inhibition (GI)” value [4] was 90%, the “growth inhibition (GI)” value [5] was 50% and the “growth inhibition (GI)” value [6] was 50%. For the same compound, the “growth inhibition (GI)” value [7] was 90%, the “growth inhibition (GI)” value [8] was 90% and the “growth inhibition (GI)” value [9] was 90%. For the same compound, the “growth inhibition (GI)” value [10] was “<=50%”.
With COP(=O)(OC)C(OC(=O)COc1ccc(F)cc1F)c1cccc([N+](=O)[O-])c1 (stereo not given) the “growth inhibition (GI)” value [1] was 50%, the “growth inhibition (GI)” value [2] was 75% and the “growth inhibition (GI)” value [3] was “<=50%”. The “growth inhibition (GI)” value [4] was 50%, the “growth inhibition (GI)” value [5] was “<=50%” and the “growth inhibition (GI)” value [6] was “<=50%”. For the same compound, the “growth inhibition (GI)” value [7] was 75%, the “growth inhibition (GI)” value [8] was “<=50%” and the “growth inhibition (GI)” value [9] was 50%. For the same compound, the “growth inhibition (GI)” value [10] was 50%.
In the case of COP(=O)(OC)C(OC(=O)COc1ccc(F)cc1F)c1ccccc1 (stereo not given), the “growth inhibition (GI)” value [1] was “<=50%”, the “growth inhibition (GI)” value [2] was “<=50%” and the “growth inhibition (GI)” value [3] was 50%. For the same compound, the “growth inhibition (GI)” value [4] was “<=50%”, the “growth inhibition (GI)” value [5] was 75% and the “growth inhibition (GI)” value [6] was “<=50%”. For the same compound, the “growth inhibition (GI)” value [7] was 90%, the “growth inhibition (GI)” value [8] was “<=50%” and the “growth inhibition (GI)” value [9] was 50%. The “growth inhibition (GI)” value [10] was “<=50%”.
In the case of COP(=O)(OC)C(OC(=O)COc1ccc(F)cc1Cl)c1cccc([N+](=O)[O-])c1 (stereo not given), the “growth inhibition (GI)” value [1] was 50%, the “growth inhibition (GI)” value [2] was 75% and the “growth inhibition (GI)” value [3] was 90%. The “growth inhibition (GI)” value [4] was 90%, the “growth inhibition (GI)” value [5] was 90% and the “growth inhibition (GI)” value [6] was 75%. The “growth inhibition (GI)” value [7] was 90%, the “growth inhibition (GI)” value [8] was 90% and the “growth inhibition (GI)” value [9] was 90%. For the same compound, the “growth inhibition (GI)” value [10] was 50%.
For COP(=O)(OC)C(OC(=O)COc1ccccc1F)c1cccc([N+](=O)[O-])c1 (stereo not given), the “growth inhibition (GI)” value [1] was “<=50%”, the “growth inhibition (GI)” value [2] was “<=50%” and the “growth inhibition (GI)” value [3] was “<=50%”. The “growth inhibition (GI)” value [4] was “<=50%”, the “growth inhibition (GI)” value [5] was “<=50%” and the “growth inhibition (GI)” value [6] was 90%. For the same compound, the “growth inhibition (GI)” value [7] was “<=50%”, the “growth inhibition (GI)” value [8] was “<=50%” and the “growth inhibition (GI)” value [9] was “<=50%”. For the same compound, the “growth inhibition (GI)” value [10] was “<=50%”.
